Assay results published in US4131615A, “Furan derivative for use as pharmaceutical product particularly for the treatment of rheumatic illnesses” (A. Wasserman S.p.A., priority 1977, dated 1978).

Key:
[1] = test system: contortions caused by phenyl-p-benzoquinone; experiment: Analgesic activity, phenyl-p-benzoquinone contortions; format: in vivo, female Swiss mice; conditions: Mus musculus; oral, female mice, contortions by intraperitoneal 0.02% phenyl-p-benzoquinone
Protocol: (§1) The product of the EXAMPLE 1, ±αmethyl-4-(furan-2-carbonyl)phenyl acetic acid, was subjected to toxicological and pharmacological tests in rats and mice. The animals used were Sprague Dawley rats and Swiss mice of both sexes, to which the product was administered orally as a 2% suspension in gum arabic parenterally as the sodium salt.
The oral administration of the product to female mice weighing from 18 to 22 grams reduced the number of contortions caused by the intraperitoneal injection of 0.1 ml/10 g of body weight of a 0.02% solution of phenyl-p-benzoquinone.

[2] = Acute oral toxicity in rats; design: species or system female Sprague Dawley rats; conditions: in vivo, rat, 14 days, approximate value
Protocol: as §1
(§2) This has been tested in male and female mice weighing from 18 to 22 g and in female rats weighing from 90 to 120 grams.
(§3) The product was administered to groups of 6 mice and groups of 6 rats, mortality being looked for 14 days after the administration.

[3] = test system: Cotton-Pellet induced granuloma; experiment: Anti-inflammatory activity on Cotton-Pellet induced granuloma; format: in vivo, female Sprague Dawley rats; conditions: 15 mg/Kg oral daily for 7 days, divided into 4 administrations over 9 hours
Protocol: as §1
3) Anti-inflammatory activity on Cotton-Pellet induced granuloma.
The oral administration daily for 7 days of a dose of 15 mg/Kg of the product, divided into 4 administrations taken over a time of 9 hours, reduced the formation of granulomatous tissue formed around Cotton-Pelletsplanted aseptically under the skin of female rats, weighing from 180 to 200 grams, by 17% with respect to controls.

[4] = test system: Nystatin subplantaris edema; experiment: Curative activity, Nystatin subplantaris edema; format: in vivo; conditions: rat, doses equal to those cited above (80-40-20 mg/Kg)
Protocol: as §1

[5] = test system: edema induced by Carrageenan; experiment: Anti-inflammatory activity, Carrageenan-induced edema; format: in vivo, male Sprague Dawley rats; conditions: 80 mg/Kg oral, 30 minutes before Carrageenan, after 3 hours
Protocol: as §1
An edema was induced in male rats weighing about 120 grams by injection into the aponeurosis under the plantaris of the left foot of 0.1 ml of 1% Carrageenan in saline.
The oral administration of 80-40-20 mg/Kg of product, 30 minutes before the inflammatory agent, reduced after 3 hours the development of the edema by rispectively 53%-47% -23% with respect to that induced in the controls.

[6] = test system: experimentally induced arthritis (Freund's adjuvant arthritis); experiment: Freund's adjuvant arthritis; format: in vivo; conditions: 20-40 mg/Kg oral, rat, confirmed by radiologic test
arterial pressure = experiment: Action on arterial pressure; format: in vivo; conditions: endovenous injection, 2.5-12.5-62.5 mg/Kg, rabbit
From the text: 7) Action on arterial pressure.

Yeast-Induced fever = experiment: Antipyretic Effect in Yeast-Induced fever; format: in vivo, female Sprague Dawley rats; conditions: 80 mg/Kg oral, after 60 minutes (peak-effect)
Protocol: as §1
5) Antipyretic Effect in Yeast-Induced fever.
The oral administration of rispectively 80-40-20 mg/Kg of the product to female rats reduces the increase in temperature of the rectum, caused by the injection under the skin of 10 ml/Kg of 15% brewer's yeast in 1% arabic gum, by rispectively 71%-63%-33% after 60 minutes (peak-effect) from the administration.

[7] = Acute oral toxicity in mice; design: species or system male and female Swiss mice; conditions: in vivo, mouse, 14 days, approximate value
Protocol: as §1, §2, §3

For `CC(C(=O)O)c1ccc(C(=O)c2ccco2)cc1` (racemic) [Example 1, ±α-methyl-4-(furan-2-carbonyl)-phenylacetic acid], the ED50 [1] was 4.35 mg/kg, the LD50 at 336 h [2] was about 980 mg/kg and the “reduction of the formation of granulomatous tissue with respect to controls” value [3] was 17%. For the same compound, the “regress of the Nystatin subplantaris edema (curative activity)” value [4] was “induce in the rat a regress of the Nystatin subplantaris edema”, the “reduction of the development of the edema with respect to controls” value [5] was 53% and the “Recovery from experimentally induced arthritis” value [6] was “Recovery from experimentally induced arthritis in the rat (Freund's adjuvant arthritis) has been obtained”. The “variations in the blood pressure” value (arterial pressure) was “does not induce significant variations in the blood pressure”, the “reduction of the increase in temperature of the rectum” value (Yeast-Induced fever) was 71% and the LD50 at 336 h [7] was about 1000 mg/kg.
